Assay results from patent US8846316B2, “Biomarker for human liver cancer” (Industrial Technology Research Institute, priority 2012, dated 2014).

Tested on: miR-129-2 expression
Assay: miR-129-2 expression by qRT-PCR after 5-aza-cytidine treatment of HCC cells
Type: cell-based, human
Conditions: 5 μM 5-azaC for 3 days
Experimental: Hepatoma cell lines, HepG2, HuH7, J7, Hep3B, Mahlavu and SK-Hep-1 were maintained in Dulbecco's modified Eagle's medium at 37° C. in a humidified, 5% CO2 incubator. Twenty-four hours prior to treatment, HuH7 cells (1×10^5 cells/well) and other hepatoma cells (3×10^5 cells/well) were seeded into 6-well plates. Cells were treated with 5 μM 5-azaC (Sigma) for 3 days. Culture medium was replaced every 24 hours with fresh media containing 5-azaC.
Total RNA of hepatoma cells and HCC clinical samples was extracted using TRIzol reagent (Invitrogen). cDNA synthesis was performed with Superscript III reverse transcriptase according to the manufacturer's instructions (Invitrogen). Real-time quantitative polymerase chain reaction was performed on the ABI Prism 7000 sequence detection System using the SYBR Green PCR master mix (Applied Biosystems). For analysis of mature miRNA expression, TaqMan miRNA assay system (Applied Biosystems) was used as the manufacturer's manual. The relative expression level was analyzed by the ΔΔCt method, and U6 and RNU44 were used as an internal control.
In order to evaluate whether miR-129-2 expression was regulated by DNA methylation, the expression level of miR-129-2 between normal liver cells and HCC cells was examined by quantitative reverse transcription PCR.

Nc1ncn([C@@H]2O[C@H](CO)[C@@H](O)[C@H]2O)c(=O)n1 [5-aza-cytidine]
miR-129-2 expression level elevated compared with untreated cell (HuH7 cell): 2.5 fold | miR-129-2 expression level elevated compared with untreated cell (J7 cell): 16 fold
